{"source": "ChEMBL document CHEMBL1146483", "about": "“Antitumor activity of bruceantin: an old drug with new promise” (J Nat Prod, 2004)", "key": {"[1]": {"system": "BV-173", "assay": "Cytotoxicity against human BV173 cells by trypan blue exclusion method", "type": "functional, cell-based"}, "[2]": {"system": "NB-4", "assay": "Cytotoxicity against human NB4 cells by trypan blue exclusion method", "type": "functional, cell-based"}, "[3]": {"system": "U-937", "assay": "Cytotoxicity against human U937 cells by trypan blue exclusion method", "type": "functional, cell-based"}, "[4]": {"assay": "Cytotoxicity against human DHL6 cells by trypan blue exclusion method", "type": "functional, cell-based", "details": "SU-DHL-6"}, "[5]": {"system": "HL-60", "assay": "Cytotoxicity against human HL60 cells by trypan blue exclusion method", "type": "functional, cell-based"}, "[6]": {"system": "Kasumi 1", "assay": "Cytotoxicity against human Kasumi-1 cells by trypan blue exclusion method", "type": "functional, cell-based"}, "[7]": {"system": "REH", "assay": "Cytotoxicity against human REH cells by trypan blue exclusion method", "type": "functional, cell-based"}, "[8]": {"system": "K562", "assay": "Cytotoxicity against human K562 cells assessed as cell viability at 50 ng/mL after 4 days by trypan blue exclusion method", "type": "functional", "details": "K562, 96 h, read-out: Activity"}, "[9]": {"assay": "Cytotoxicity against concanavalin-stimulated human lymphocytes cells assessed as cell viability at 50 ng/mL after 4 days by trypan blue exclusion method", "type": "cell-based, Lymphocyte", "details": "read-out: Activity"}, "[10]": {"system": "HL-60", "assay": "Induction of apoptosis in human HL60 cells after 24 hrs by DAPI staining", "type": "functional, cell-based", "details": "HL-60, 24 h"}, "[11]": {"system": "RPMI-8226", "assay": "Induction of apoptosis in human RPMI8226 cells after 24 hrs by DAPI staining", "type": "functional, cell-based", "details": "RPMI-8226, 24 h"}, "[12]": {"system": "U-266", "assay": "Induction of apoptosis in human U266 cells after 24 hrs by DAPI staining", "type": "functional, cell-based", "details": "U-266, 24 h"}, "[13]": {"system": "NCI-H929", "assay": "Induction of apoptosis in human NCI-H929 cells after 24 hrs by DAPI staining", "type": "functional, cell-based", "details": "NCI-H929, 24 h"}, "[14]": {"system": "RPMI-8226", "assay": "Antitumor activity in human RPMI8226 cells xenografted in SCID mouse assessed as induction of apoptosis in peripheral proliferating areas at 5 to 12 mg mg/kg, ip administered every 3 days", "type": "functional"}, "[15]": {"system": "Daudi", "assay": "Cytotoxicity against human Daudi cells by trypan blue exclusion method", "type": "functional, cell-based"}, "[16]": {"assay": "Cytotoxicity against human RS4:11 cells by trypan blue exclusion method", "type": "functional, cell-based"}, "[17]": {"assay": "Cytotoxicity against human SUP-B13 cells by trypan blue exclusion method", "type": "functional, cell-based"}}, "data": [{"compound": "COC(=O)[C@@]12OC[C@]34[C@H]([C@@H](O)[C@@H]1O)[C@@]1(C)CC(=O)C(O)=C(C)[C@@H]1C[C@H]3OC(=O)[C@H](OC(=O)/C=C(\\C)C(C)C)[C@@H]24", "note": "[BRUCEANTIN]", "values": [{"measurement": "IC50", "setting": "[1]", "value": "< 0.015", "unit": "µg/mL"}, {"measurement": "IC50", "setting": "[2]", "value": "< 0.015", "unit": "µg/mL"}, {"measurement": "IC50", "setting": "[3]", "value": "< 0.015", "unit": "µg/mL"}, {"measurement": "IC50", "setting": "[4]", "value": "< 0.015", "unit": "µg/mL"}, {"measurement": "IC50", "setting": "[5]", "value": 0.02, "unit": "µg/mL"}, {"measurement": "IC50", "setting": "[6]", "value": 0.02, "unit": "µg/mL"}, {"measurement": "IC50", "setting": "[7]", "value": 0.02, "unit": "µg/mL"}, {"measurement": "viability at 0.05 µg/mL", "setting": "[8]", "value": 90, "unit": "%"}, {"measurement": "viability at 96 h, 50 ng/mL", "setting": "[9]", "value": 90, "unit": "%"}, {"measurement": "IC50", "setting": "[10]", "value": 12.2, "unit": "nM"}, {"measurement": "IC50", "setting": "[11]", "value": 12.8, "unit": "nM"}, {"measurement": "IC50", "setting": "[12]", "value": 49, "unit": "nM"}, {"measurement": "IC50", "setting": "[13]", "value": 115, "unit": "nM"}, {"measurement": "Activity", "setting": "[14]", "value": 36.6, "unit": "%"}, {"measurement": "IC50", "setting": "[15]", "value": "< 0.015", "unit": "µg/mL"}, {"measurement": "IC50", "setting": "[16]", "value": "< 0.015", "unit": "µg/mL"}, {"measurement": "IC50", "setting": "[17]", "value": "< 0.015", "unit": "µg/mL"}]}]}
